Converted amounts (≈) assume the structure as drawn.
Columns and labels:
[1] = Maximum plasma concentration in rats after an oral dose of 5 mg/kg; conditions: rat
[2] = target: T1, DNA gyrase (Escherichia coli) (UniProt P0AES6+P0AES4); experiment: In vivo efficacy against Escherichia coli JUHL after oral administration; type: functional, organism-based; conditions: Escherichia coli K-12
[3] = target: T1, DNA gyrase (Escherichia coli); experiment: In vivo efficacy against Escherichia coli JUHL by subcutaneous administration; type: functional, organism-based; conditions: Escherichia coli K-12
[4] = target: T1, DNA gyrase (Escherichia coli); experiment: In vitro antibacterial activity against gram-negative organism […] ATCC 13048; type: functional; conditions: Enterobacter aerogenes
[5] = target: T1, DNA gyrase (Escherichia coli); experiment: In vitro antibacterial against gram-negative organism Escherichia coli JUHL; type: functional; conditions: Escherichia coli K-12
[6] = target: T1, DNA gyrase (Escherichia coli); experiment: In vitro antibacterial activity against gram-negative organism Klebsiella pneumoniae ATCC 8045; type: functional
[7] = In vivo efficacy against Pseudomonas aeruginosa 5007 after subcutaneous administration; type: functional
[8] = target: T1, DNA gyrase (Escherichia coli); experiment: In vitro antibacterial activity against gram-negative organism Prov. stuartii CMX-640; type: functional; conditions: Providencia stuartii
[9] = (§1) In vitro antibacterial activity against gram-negative organism Pseudomonas aeruginosa 5007; type: functional; conditions: Pseudomonas aeruginosa; read-out: MIC
[10] = In vitro antibacterial activity against gram-negative organism Pseudomonas aeruginosa DPHD-2862; type: functional; conditions: Pseudomonas aeruginosa; read-out: MIC
Staphylococcus aureus [11] = experiment: (§2) In vivo efficacy against Staphylococcus aureus NCTC-10649M after subcutaneous administration; type: functional; conditions: sc
[12] = target: T2, DNA gyrase (Staphylococcus aureus) (UniProt P0A0K8+P20831); experiment: In vitro antibacterial activity against gram-positive organism Staphylococcus aureus 1775; type: functional
T2 sequence (P0A0K8 2-644 limits assumed): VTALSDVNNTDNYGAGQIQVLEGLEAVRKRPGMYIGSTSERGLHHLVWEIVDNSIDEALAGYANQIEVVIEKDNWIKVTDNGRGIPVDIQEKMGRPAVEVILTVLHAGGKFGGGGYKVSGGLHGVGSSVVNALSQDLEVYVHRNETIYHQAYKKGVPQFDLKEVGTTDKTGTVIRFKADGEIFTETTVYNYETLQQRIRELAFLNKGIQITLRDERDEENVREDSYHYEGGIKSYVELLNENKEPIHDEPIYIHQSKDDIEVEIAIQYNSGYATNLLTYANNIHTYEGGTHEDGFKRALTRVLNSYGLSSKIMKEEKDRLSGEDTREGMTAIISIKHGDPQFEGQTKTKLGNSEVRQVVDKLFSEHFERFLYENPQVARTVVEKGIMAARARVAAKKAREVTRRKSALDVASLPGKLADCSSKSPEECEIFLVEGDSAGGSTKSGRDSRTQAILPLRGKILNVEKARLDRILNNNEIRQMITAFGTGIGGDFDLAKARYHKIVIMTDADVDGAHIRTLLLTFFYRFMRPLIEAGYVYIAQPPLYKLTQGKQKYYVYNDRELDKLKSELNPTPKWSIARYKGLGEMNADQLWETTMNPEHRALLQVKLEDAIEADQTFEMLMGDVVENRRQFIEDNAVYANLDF
T2 sequence (P20831 whole entry partner): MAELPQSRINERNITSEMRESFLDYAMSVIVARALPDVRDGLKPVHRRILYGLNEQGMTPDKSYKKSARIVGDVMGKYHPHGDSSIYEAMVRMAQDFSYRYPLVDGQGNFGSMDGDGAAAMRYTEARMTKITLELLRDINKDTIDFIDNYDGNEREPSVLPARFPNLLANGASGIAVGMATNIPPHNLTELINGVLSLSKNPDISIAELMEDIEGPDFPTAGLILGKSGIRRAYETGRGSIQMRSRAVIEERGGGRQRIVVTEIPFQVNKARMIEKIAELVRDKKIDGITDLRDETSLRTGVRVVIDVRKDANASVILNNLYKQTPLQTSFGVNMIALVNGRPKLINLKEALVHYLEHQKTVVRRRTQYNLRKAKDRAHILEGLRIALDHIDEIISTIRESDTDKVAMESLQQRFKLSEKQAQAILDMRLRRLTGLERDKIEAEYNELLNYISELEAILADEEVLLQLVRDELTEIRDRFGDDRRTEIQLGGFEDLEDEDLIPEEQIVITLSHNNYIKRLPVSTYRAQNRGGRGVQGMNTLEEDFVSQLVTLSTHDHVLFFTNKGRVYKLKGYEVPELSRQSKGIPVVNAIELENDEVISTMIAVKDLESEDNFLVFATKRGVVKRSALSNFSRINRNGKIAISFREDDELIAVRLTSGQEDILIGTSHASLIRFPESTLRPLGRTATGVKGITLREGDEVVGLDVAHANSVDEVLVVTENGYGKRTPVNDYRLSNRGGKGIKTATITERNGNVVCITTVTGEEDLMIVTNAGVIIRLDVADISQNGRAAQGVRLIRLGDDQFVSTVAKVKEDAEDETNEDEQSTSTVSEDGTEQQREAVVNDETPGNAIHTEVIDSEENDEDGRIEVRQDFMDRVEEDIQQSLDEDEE

[13] = target: T2, DNA gyrase (Staphylococcus aureus); experiment: In vitro antibacterial activity against gram-positive organism Staphylococcus aureus ATCC 6538p; type: functional
[14] = target: T2, DNA gyrase (Staphylococcus aureus); experiment: In vitro antibacterial activity against gram-positive organism Staphylococcus aureus NCTC-10649M; type: functional
[15] = target: T1, DNA gyrase (Escherichia coli); experiment: In vitro antibacterial activity against gram-positive organism Streptococcus bovis A-5169; type: functional; conditions: Streptococcus equinus
Streptococcus pneumoniae [16] = experiment: (§3) In vivo efficacy against Strep. administration; type: functional
[17] = target: T2, DNA gyrase (Staphylococcus aureus); experiment: (§4) In vivo efficacy against Staphylococcus aureus NCTC-10649M after oral administration; type: functional, organism-based
Streptococcus pyogenes = experiment: In vitro antibacterial activity against gram-positive organism Streptococcus pyogenes EES61; type: functional; conditions: Streptococcus pyogenes; read-out: MIC
[18] = target: T1, DNA gyrase (Escherichia coli); experiment: In vitro antibacterial activity against gram-positive organism Enterococcus faecium ATCC 8043; type: functional
Streptococcus pneumoniae [19] = experiment: as §3; type: functional; remark: listed apart in the source
in vivo [20] = conditions: rat, po, 5 mg/kg
Description: Oral bioavailability in rat (dose 5 mg/kg)

in vivo [21] = conditions: rat, plasma, po, 5 mg/kg
Pseudomonas aeruginosa [22] = experiment: In vivo efficacy against Pseudomonas aeruginosa 5007 following p.o. administration.
Pseudomonas aeruginosa [23] = experiment: In vivo efficacy against Pseudomonas aeruginosa 5007 by orally administered.; type: functional; conditions: Pseudomonas aeruginosa, po; read-out: ED50
Streptococcus pneumoniae [24] = experiment: In vivo efficacy against Strep. administered; type: functional; conditions: Streptococcus pneumoniae; read-out: ED50
in vivo [25] = conditions: rat, plasma, po, 5 mg/kg; remark: listed apart in the source
Pseudomonas aeruginosa [26] = experiment: as §1; type: functional
Staphylococcus aureus [27] = experiment: as §4; type: functional
[28] = target: T2, DNA gyrase (Staphylococcus aureus); experiment: as §2; type: functional, organism-based
Escherichia coli [29] = experiment: In vivo efficacy against Escherichia coli JUHL by orally administered.; type: functional; conditions: po
Escherichia coli [30] = experiment: In vivo efficacy against Escherichia coli JUHL by subcutaneously administered.; type: functional; conditions: sc
Pseudomonas aeruginosa [31] = experiment: In vivo efficacy against Pseudomonas aeruginosa 5007 by subcutaneously administered.; type: functional; conditions: sc
Streptococcus pneumoniae [32] = experiment: In vivo efficacy against Stap. administered.; type: functional
Staphylococcus aureus [33] = experiment: In vivo efficacy against Staphylococcus aureus NCTC-10649M by subcutaneously administered.; type: functional
Staphylococcus aureus [34] = experiment: In vivo efficacy against Staphylococcus aureus NCTC-10649M by orally administered.; type: functional
[35] = target: T1, DNA gyrase (Escherichia coli); conditions: Escherichia coli K-12
Description: Concentration which causes 50% of the gyrase (Escherichia coli H560)-mediated maximal DNA cleavage.

Enterococcus faecalis = experiment: Inhibitory activity against enterococcus faecalis Van B; type: functional
Enterococcus faecium = experiment: Inhibitory activity against enterococcus faecium Van A; type: functional

SMILES: Cc1c(N2CCC(O)C2)c(F)cn2c(=O)c(C(=O)O)cc(C3CC3)c12 (stereo not given)
- Cmax [1]: 1420 ng/mL
- ED50 [2]: > 5 mg/kg
- ED50 [3]: > 1 mg/kg
- MIC [4]: 0.02 µg/mL (≈ 0.0577 µM)
- MIC [5]: 0.02 µg/mL (≈ 0.0577 µM)
- MIC [6]: 0.02 µg/mL (≈ 0.0577 µM)
- ED50 ([7]; Pseudomonas aeruginosa, sc, read-out: ED50): > 8 mg/kg
- MIC [8]: 0.2 µg/mL (≈ 0.577 µM)
- MIC [9]: 0.2 µg/mL (≈ 0.577 µM)
- MIC [10]: 6.2 µg/mL (≈ 17.9 µM)
- ED50 (Staphylococcus aureus [11]): 11.3 mg/kg
- MIC [12]: 0.2 µg/mL (≈ 0.577 µM)
- MIC [13]: 0.01 µg/mL (≈ 0.0289 µM)
- MIC [14]: 0.005 µg/mL (≈ 0.0144 µM)
- MIC [15]: 0.05 µg/mL (≈ 0.144 µM)
- ED50 (Streptococcus pneumoniae [16]): 7.4 mg/kg
- ED50 [17]: 15.2 mg/kg
- MIC (Streptococcus pyogenes): 0.05 µg/mL (≈ 0.144 µM)
- MIC [18]: 0.05 µg/mL (≈ 0.144 µM)
- ED50 (Streptococcus pneumoniae [19]): 41.5 mg/kg
- bioavailability (in vivo [20]): 50%
- half-life (in vivo [21]): 324 min
- ED50 (Pseudomonas aeruginosa [22]): > 50 mg/kg

SMILES: Cc1c(N2C[C@@H]3CCN[C@@H]3C2)c(F)cn2c(=O)c(C(=O)O)cc(C3CC3)c12 (stereo in doubt; 45o)
- Cmax [1]: 1130 ng/mL
- ED50 [7]: 6.4 mg/kg
- ED50 (Pseudomonas aeruginosa [23]): 39.9 mg/kg
- MIC [9]: 0.39 µg/mL (≈ 1.05 µM)
- MIC [10]: 6.2 µg/mL (≈ 16.7 µM)
- ED50 (Streptococcus pneumoniae [24]): 4.5 mg/kg
- MIC (Streptococcus pyogenes): 0.05 µg/mL (≈ 0.135 µM)
- ED50 (Streptococcus pneumoniae [19]; Streptococcus pneumoniae, read-out: ED50): 7.6 mg/kg
- half-life (in vivo [25]): 246 min
- bioavailability (in vivo [20]): 62%

SMILES: Cc1c(N2CC[C@@]3(C[C@@H]3N)C2)c(F)cn2c(=O)c(C(=O)O)cc(C3CC3)c12
- MIC [4]: 0.05 µg/mL (≈ 0.135 µM)
- MIC [5]: 0.01 µg/mL (≈ 0.0269 µM)
- MIC [6]: 0.005 µg/mL (≈ 0.0135 µM)
- MIC [8]: 0.39 µg/mL (≈ 1.05 µM)
- MIC (Pseudomonas aeruginosa [26]): 0.39 µg/mL (≈ 1.05 µM)
- MIC [10]: 3.1 µg/mL (≈ 8.35 µM)
- ED50 (Staphylococcus aureus [27]): 6.3 mg/kg
- MIC [12]: 0.39 µg/mL (≈ 1.05 µM)
- MIC [13]: 0.002 µg/mL (≈ 0.00538 µM)
- MIC [14]: 0.02 µg/mL (≈ 0.0538 µM)
- ED50 [28]: 1.2 mg/kg
- MIC (Streptococcus pyogenes): 0.01 µg/mL (≈ 0.0269 µM)
- MIC [18]: 0.05 µg/mL (≈ 0.135 µM)

SMILES: Cc1c(N2CCC(N)C2)c(F)cn2c(=O)c(/C(O)=C/[N+](=O)[O-])cc(C3CC3)c12 (stereo not given)
- ED50 (Escherichia coli [29]): > 10 mg/kg
- ED50 (Escherichia coli [30]): > 5 mg/kg
- MIC [4]: 0.1 µg/mL (≈ 0.257 µM)
- MIC [5]: 0.02 µg/mL (≈ 0.0515 µM)
- MIC [6]: 0.02 µg/mL (≈ 0.0515 µM)
- ED50 (Pseudomonas aeruginosa [31]): 3.2 mg/kg
- MIC [8]: 1.56 µg/mL (≈ 4.02 µM)
- MIC [9]: 0.39 µg/mL (≈ 1 µM)
- MIC [10]: 6.2 µg/mL (≈ 16 µM)
- ED50 (Streptococcus pneumoniae [32]): > 8 mg/kg
- MIC [12]: 6.2 µg/mL (≈ 16 µM)
- MIC [13]: 0.05 µg/mL (≈ 0.129 µM)
- MIC [14]: 0.1 µg/mL (≈ 0.257 µM)
- MIC [15]: 0.2 µg/mL (≈ 0.515 µM)
- ED50 (Staphylococcus aureus [33]): > 12 mg/kg
- MIC (Streptococcus pyogenes): 0.2 µg/mL (≈ 0.515 µM)
- MIC [18]: 0.39 µg/mL (≈ 1 µM)
- ED50 (Staphylococcus aureus [34]): 25.2 mg/kg
- CC50 [35]: 3 µg/mL (≈ 7.72 µM)

SMILES: Cc1c(N2CCC(N(C)C)C2)c(F)cn2c(=O)c(C(=O)O)cc(C3CC3)c12 (stereo not given)
- MIC (Enterococcus faecalis): 0.12 µg/mL (≈ 0.321 µM)
- ED50 (Escherichia coli [29]): > 10 mg/kg
- ED50 [3]: 1.9 mg/kg
- MIC [4]: 0.1 µg/mL (≈ 0.268 µM)
- MIC (Enterococcus faecium): 1 µg/mL (≈ 2.68 µM)
- MIC [5]: 0.02 µg/mL (≈ 0.0536 µM)
- MIC [6]: 0.02 µg/mL (≈ 0.0536 µM)
- MIC [8]: 3.1 µg/mL (≈ 8.3 µM)
- MIC [9]: 0.39 µg/mL (≈ 1.04 µM)
- MIC [10]: 12.5 µg/mL (≈ 33.5 µM)
- MIC [12]: 0.78 µg/mL (≈ 2.09 µM)
- MIC [13]: 0.05 µg/mL (≈ 0.134 µM)
- MIC [14]: 0.05 µg/mL (≈ 0.134 µM)
- MIC [15]: 0.39 µg/mL (≈ 1.04 µM)
- ED50 (Streptococcus pneumoniae [16]): > 25 mg/kg
- ED50 [17]: 25 mg/kg
- ED50 [28]: 4.7 mg/kg
- MIC (Streptococcus pyogenes): 0.1 µg/mL (≈ 0.268 µM)
- MIC [18]: 0.1 µg/mL (≈ 0.268 µM)
- ED50 (Streptococcus pneumoniae [19]): 44.1 mg/kg

From ChEMBL document CHEMBL1129258, “Synthesis and structure-activity relationships of 2-pyridones: a novel series of potent DNA gyrase inhibitors as antibacterial agents” (J Med Chem, 1996)
